According to PubChem BioAssay AID1963964 (Molecular Pharmacology Branch, DTP, NCI, 2024):

System: 997726-040-R-J2-PDC tumor spheroids, viability
Assay: Anticancer human tumor 997726-040-R-J2-PDC patient-derived squamous cell lung carcinoma cell line growth inhibition [PI3K]
Settings: spheroids with HUVEC and MSC; for IC50: curve of first compound; for viability, T/C: stronger effect = lower value
Summary of the method: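 Stroma-containing spheroids: tumor line, pooled-donor HUVEC, hMSC. Treatments: targeted agents with PI3K inhibitors. Dosing: clinically relevant, half-log spacing, 10 microM ceiling without known Cmax. Read-out: cell viability.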

[1] = second compound 0.00316 µM, first compound 0.0316 µM
[2] = second compound 0.00316 µM, first compound 0.1 µM
[3] = second compound 0.00316 µM, first compound 0.316 µM
[4] = second compound 0.00316 µM, first compound 1 µM
[5] = second compound 0.01 µM, first compound 0.0316 µM
[6] = second compound 0.01 µM, first compound 0.1 µM
[7] = second compound 0.01 µM, first compound 0.316 µM
[8] = second compound 0.01 µM, first compound 1 µM
[9] = second compound 0.0316 µM, first compound 0.0316 µM
[10] = second compound 0.0316 µM, first compound 0.1 µM
[11] = second compound 0.0316 µM, first compound 0.316 µM
[12] = second compound 0.0316 µM, first compound 1 µM
[13] = second compound 0.1 µM, first compound 0.0316 µM
[14] = second compound 0.1 µM, first compound 0.1 µM
[15] = second compound 0.1 µM, first compound 0.316 µM
[16] = second compound 0.1 µM, first compound 1 µM
[17] = second compound 0.316 µM, first compound 0.0316 µM
[18] = second compound 0.316 µM, first compound 0.1 µM
[19] = second compound 0.316 µM, first compound 0.316 µM
[20] = second compound 0.316 µM, first compound 1 µM
[21] = second compound 1 µM, first compound 0.0316 µM
[22] = second compound 1 µM, first compound 0.1 µM
[23] = second compound 1 µM, first compound 0.316 µM
[24] = second compound 1 µM, first compound 1 µM
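Further: spheroids exposed to compounds for seven days before readout.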

Compound `CC(C)NCC(C(=O)N1CCN(c2ncnc3c2C(C)CC3O)CC1)c1ccc(Cl)cc1` (centres undefined) + CC(Nc1ccc2c(c1)OCCn1cc(N3C(=O)OCC3C(F)F)nc1-2)C(N)=O has an IC50 (second compound 0.00316 µM) of 269 nM, an IC50 (second compound 0.01 µM) of 233 nM and an IC50 (second compound 0.0316 µM) of 149 nM. The IC50 (second compound 0.1 µM) was 35.8 nM, the IC50 (second compound 0.316 µM) was less than 31.6 nM and the IC50 (second compound 1 µM) was less than 31.6 nM. The viability, T/C [1] was 77.7%, the viability, T/C [2] was 68.9% and the viability, T/C [3] was 45.2%. For the same compound, the viability, T/C [4] was 27.8%, the viability, T/C (second compound 0.00316 µM, first compound 3.16 µM) was 10.2% and the viability, T/C (second compound 0.00316 µM, first compound 10 µM) was 9.8%. For the same compound, the viability, T/C [5] was 71.5%, the viability, T/C [6] was 65.8% and the viability, T/C [7] was 41.3%. The viability, T/C [8] was 30.3%, the viability, T/C (second compound 0.01 µM, first compound 3.16 µM) was 10.5% and the viability, T/C (second compound 0.01 µM, first compound 10 µM) was 7.89%. The viability, T/C [9] was 53.3%, the viability, T/C [10] was 57.7% and the viability, T/C [11] was 41.3%. The viability, T/C [12] was 26.6%, the viability, T/C (second compound 0.0316 µM, first compound 3.16 µM) was 12.4% and the viability, T/C (second compound 0.0316 µM, first compound 10 µM) was 8.75%. It also gave a viability, T/C [13] of 52.1%, a viability, T/C [14] of 37.7% and a viability, T/C [15] of 31.4%. It also gave a viability, T/C [16] of 22.4%, a viability, T/C (second compound 0.1 µM, first compound 3.16 µM) of 11.2% and a viability, T/C (second compound 0.1 µM, first compound 10 µM) of 6.81%. It also gave a viability, T/C [17] of 34.7%, a viability, T/C [18] of 28.8% and a viability, T/C [19] of 24.6%. The viability, T/C [20] was 20.6%, the viability, T/C (second compound 0.316 µM, first compound 3.16 µM) was 10.6% and the viability, T/C (second compound 0.316 µM, first compound 10 µM) was 5.02%. For the same compound, the viability, T/C [21] was 26.2%, the viability, T/C [22] was 23.6% and the viability, T/C [23] was 23.4%. It also gave a viability, T/C [24] of 16.5%, a viability, T/C (second compound 1 µM, first compound 3.16 µM) of 8.21% and a viability, T/C (second compound 1 µM, first compound 10 µM) of 5.34%.
`CCN1CCN(Cc2ccc(Nc3ncc(F)c(-c4cc(F)c5nc(C)n(C(C)C)c5c4)n3)nc2)CC1` + CC(Nc1ccc2c(c1)OCCn1cc(N3C(=O)OCC3C(F)F)nc1-2)C(N)=O showed an IC50 (second compound 0.00316 µM) greater than 1000 nM, an IC50 (second compound 0.01 µM) of 830 nM and an IC50 (second compound 0.0316 µM) of 10.4 nM. It also gave an IC50 (second compound 0.1 µM) of less than 3.16 nM, an IC50 (second compound 0.316 µM) of less than 3.16 nM and an IC50 (second compound 1 µM) of less than 3.16 nM. For the same compound, the viability, T/C (second compound 0.00316 µM, first compound 0.00316 µM) was 79%, the viability, T/C (second compound 0.00316 µM, first compound 0.01 µM) was 79.8% and the viability, T/C [1] was 72.7%. It also gave a viability, T/C [2] of 58.5%, a viability, T/C [3] of 59.4% and a viability, T/C [4] of 62.3%. The viability, T/C (second compound 0.01 µM, first compound 0.00316 µM) was 79.8%, the viability, T/C (second compound 0.01 µM, first compound 0.01 µM) was 77.3% and the viability, T/C [5] was 60.7%. It also gave a viability, T/C [6] of 62.6%, a viability, T/C [7] of 55.4% and a viability, T/C [8] of 48.1%. It also gave a viability, T/C (second compound 0.0316 µM, first compound 0.00316 µM) of 55%, a viability, T/C (second compound 0.0316 µM, first compound 0.01 µM) of 54.6% and a viability, T/C [9] of 45.9%. The viability, T/C [10] was 37.7%, the viability, T/C [11] was 40.4% and the viability, T/C [12] was 43.4%. For the same compound, the viability, T/C (second compound 0.1 µM, first compound 0.00316 µM) was 44.7%, the viability, T/C (second compound 0.1 µM, first compound 0.01 µM) was 38.1% and the viability, T/C [13] was 34.6%. For the same compound, the viability, T/C [14] was 30.5%, the viability, T/C [15] was 32.5% and the viability, T/C [16] was 32.3%. It also gave a viability, T/C (second compound 0.316 µM, first compound 0.00316 µM) of 33.4%, a viability, T/C (second compound 0.316 µM, first compound 0.01 µM) of 29.6% and a viability, T/C [17] of 26.4%. The viability, T/C [18] was 22%, the viability, T/C [19] was 23.9% and the viability, T/C [20] was 23.1%. It also gave a viability, T/C (second compound 1 µM, first compound 0.00316 µM) of 29.3%, a viability, T/C (second compound 1 µM, first compound 0.01 µM) of 26.8% and a viability, T/C [21] of 22.8%. The viability, T/C [22] was 18.2%, the viability, T/C [23] was 20.4% and the viability, T/C [24] was 21.1%.
